Experimental findings from patent US20250213707A1, “COMPOUND FOR INCREASING EFFICACY OF ONCOLYTIC VIRUSES” (ABLEVIA BIOTECH GMBH, priority 2022, published 2025) are described below.

For the first test, the system named is IgG from human donors (anti-AAV antibodies). Put plainly: Screen for anti-AAV antibodies in human sera, 2452 linear 15-amino-acid AAV peptides on microarrays (Table 1). In kind it is binding. The arrangement: key to group I: X: the deduplicated aggregate of the respective top 10 peptide hits for each donor was compiled and designated as group I; key to group II: X: the deduplicated aggregate of the respective top 25 peptide hits for each donor was compiled and designated as group II; key to group III: X: the deduplicated aggregate of the respective top 50 peptide hits for each donor was compiled and designated as group III. As to conditions: X = peptide in the deduplicated aggregate of the top 50 peptide hits for each donor (top 17.5% of all peptides screened); linear 15-amino-acid AAV peptides on microarrays, human donor IgG, fluorescence. The procedure:
2452 linear peptides derived from the sequences of 16 different AAVs and with a sequence length of 15 amino-acids each were synthesized.
Samples obtained from human donors were screened for antibodies against these AAV-derived peptides immobilized on microarrays. To this end, IgG was prepared from blood obtained from the human donors by protein G purification. Each IgG sample was incubated with the peptide microarrays and Ig binding signals were detected by fluorescence. All antibody binding signals to the peptides on the arrays were background subtracted and ranked for each sample and a deduplicated aggregate of the respective top 250 peptide hits for each donor with the corresponding protein sequence of origin (as obtained from UniProt or other sources) was compiled (designated as group IV). Further, the deduplicated aggregate of the respective top 50 peptide hits for each donor was compiled and designated as group III. Further, the deduplicated aggregate of the respective top 25 peptide hits for each donor was compiled and designated as group II. Finally, the deduplicated aggregate of the respective top 10 peptide hits for each donor was compiled and designated as group I.
Altogether, group I contains 110 distinct peptide hits (assigned to the corresponding AAV vectors in Table 1), group II contains 289 distinct peptide hits, group III contains 428 distinct peptide hits and group IV contains 1271 distinct peptide hits. Evidently, group I is a subset of group II which in turn is a subset of group III which in turn is a subset of group IV. Groups I-IV correspond to the top 4.4%, […], 17.5% and 51.8%, respectively, of all peptides screened.
For “428 (PVATEEYGIVADNLQ; REGION 1..15: note = peptide derived from viral capsid protein) [compound 428]”, the “group III” value was “X”.

On to “430 (NTPVPADPPTTFNQS; REGION 1..15: note = peptide derived from viral capsid protein) [compound 430]”, for which the “group III” value is listed as “X”.

As to “431 (EIKTTNPVATEEYGI; REGION 1..15: note = peptide derived from viral capsid protein) [compound 431]”, the “group III” value is listed as “X”.

As for “432 (GSSSGNWHCDSTWLG; REGION 1..15: note = peptide derived from viral capsid protein) [compound 432]”, the “group III” value is recorded as “X”.

Take “434 (TNPVATEEYGIVADN; REGION 1..15: note = peptide derived from viral capsid protein) [compound 434]”: the “group III” value is listed as “X”.

Turning to “438 (TTGGTANTQTLGFSQ; REGION 1..15: note = peptide derived from viral capsid protein) [compound 438]”, the “group III” value is listed as “X”.

With “445 (NNSNFAWTAGTKYHL; REGION 1..15: note = peptide derived from viral capsid protein) [compound 445]”, the “group III” value is listed as “X”.

Take “447 (YNNHLYKQISNGTSG; REGION 1..15: note = peptide derived from viral capsid protein) [compound 447]”: the “group III” value was “X”.

For the substance “453 (FGYSTPWGYFDFNRF; REGION 1..15: note = peptide derived from viral capsid protein) [compound 453]”, the “group III” value is on record as “X”.

“454 (YFGYSTPWGYFDFNR; REGION 1..15: note = peptide derived from viral capsid protein) [compound 454]”: the “group III” value is “X”.

With “459 (YSTGQVTVEMEWELK; REGION 1..15: note = peptide derived from viral capsid protein) [compound 459]”, the “group III” value is listed as “X”.

Regarding “466 (ELKKENSKRWNPEIQ; REGION 1..15: note = peptide derived from viral capsid protein) [compound 466]”, the “group III” value is “X”.

Regarding “470 (ANNLTSTVQVFTDDD; REGION 1..15: note = peptide derived from viral capsid protein) [compound 470]”, the “group III” value is reported as “X”.

In the case of “474 (ENSKRWNPEIQYTNN; REGION 1..15: note = peptide derived from viral capsid protein) [compound 474]”, the “group III” value is listed as “X”.

Regarding “475 (AGPPKPKPNQQHQDQ; REGION 1..15: note = peptide derived from viral capsid protein) [compound 475]”, the “group III” value is recorded as “X”.

Regarding “476 (PSTSSDAEAGPSGSQ; REGION 1..15: note = peptide derived from viral capsid protein) [compound 476]”, the “group III” value is “X”.

For “479 (DSTTTIANNLTSTVQ; REGION 1..15: note = peptide derived from viral capsid protein) [compound 479]”, the “group III” value is “X”.

Regarding “481 (LGLEAGPPKPKPNQQ; REGION 1..15: note = peptide derived from viral capsid protein) [compound 481]”, the “group III” value is “X”.

For “483 (TMSAGGGGPLGDNNQ; REGION 1..15: note = peptide derived from viral capsid protein) [compound 483]”, the “group III” value is “X”.

Still in this test, the particulars now being: membership in deduplicated aggregate of top 10 peptide hits for each donor; human donor IgG binding to linear 15-amino-acid AAV peptides on microarray, fluorescence.
Take ADPPTTFSQAKLAS [SEQ ID NO: 1939]: the “group I” value is “X”.

Regarding “APGKKRPVDQSPQE (REGION 1..14: note = peptide derived from viral capsid protein) [SEQ ID NO: 1918]”, the “group I” value is on record as “X”.

The test is the same for the next values; noted with them: membership in deduplicated aggregate of top 25 peptide hits for each donor; human donor IgG binding to linear 15-amino-acid AAV peptides on microarray, fluorescence.
Take ADPPTTFSQAKLAS [SEQ ID NO: 1939]: the “group II” value is listed as “X”.

As for “APGKKRPVDQSPQE (REGION 1..14: note = peptide derived from viral capsid protein) [SEQ ID NO: 1918]”, the “group II” value is on record as “X”.

The test is the same for the next values; noted with them: membership in deduplicated aggregate of top 50 peptide hits for each donor; human donor IgG binding to linear 15-amino-acid AAV peptides on microarray, fluorescence.
As for ADPPTTFSQAKLAS [SEQ ID NO: 1939], the “group III” value was “X”.

On to “APGKKRPVDQSPQE (REGION 1..14: note = peptide derived from viral capsid protein) [SEQ ID NO: 1918]”, for which the “group III” value was “X”.
